Assay results taken from publication PMC10850145, “Hormonal steroids induce multidrug resistance and stress response genes in Neisseria gonorrhoeae by binding to MtrR” (Nature Communications, 2024).
“And” between values parts separate entries of the source, which are not always exact repeats. Equal values may be shown once. Read-outs that look alike come from different tables or passages of the source.

Tested on: mtrC-lacZ expression
Type: cell-based, Neisseria gonorrhoeae
Settings: for β-galactosidase activity, Mean / β-galactosidase activity, single replicate: mtrCDE block (c1-c37), ΔmtrR + mtrR R176E in trans; for β-galactosidase activity, individual replicate / β-galactosidase activity, Miller units (single replicate): mtrR WT in cis; for β-galactosidase activity, individual replicate: single replicate values, second (right) block
[1] = mtrC-lacZ, ΔmtrR + mtrR D171A in trans, 6.25 µM hormone, single replicate
[2] = mtrC-lacZ, ΔmtrR + mtrR D171A in trans, 12.5 µM hormone, single replicate
[3] = mtrC-lacZ, ΔmtrR + mtrR D171A in trans, 25 µM hormone, single replicate
[4] = mtrC-lacZ, ΔmtrR + mtrR D171A in trans, 50 µM hormone, single replicate
[5] = mtrC-lacZ, ΔmtrR + mtrR WT in trans, 6.25 µM hormone, single replicate
[6] = mtrC-lacZ, ΔmtrR + mtrR WT in trans, 12.5 µM hormone, single replicate
[7] = mtrC-lacZ, ΔmtrR + mtrR WT in trans, 25 µM hormone, single replicate
[8] = mtrC-lacZ, ΔmtrR + mtrR WT in trans, 50 µM hormone, single replicate

## C[C@]12CC[C@@H]3c4ccc(O)cc4CC[C@H]3[C@@H]1CC[C@@H]2O [β-Estradiol, β-estradiol]
Mean of plate rows 1-4, plate columns 1-6 (first strain), 6.25 µM hormone
  Miller units, Mean: 83 Miller units
Mean of plate rows 1-4, plate columns 1-6 (first strain), 12.5 µM hormone
  Miller units, Mean: 113 Miller units
Mean of plate rows 1-4, plate columns 1-6 (first strain), 25 µM hormone
  Miller units, Mean: 148 Miller units
Mean of plate rows 1-4, plate columns 1-6 (first strain), 50 µM hormone
  Miller units, Mean: 162 Miller units
Mean of plate rows 1-4, plate columns 7-12 (second strain), 6.25 µM hormone
  Miller units, Mean: 163 Miller units
Mean of plate rows 1-4, plate columns 7-12 (second strain), 12.5 µM hormone
  Miller units, Mean: 152 Miller units
Mean of plate rows 1-4, plate columns 7-12 (second strain), 25 µM hormone
  Miller units, Mean: 175 Miller units
Mean of plate rows 1-4, plate columns 7-12 (second strain), 50 µM hormone
  Miller units, Mean: 160 Miller units
Complemented (MtrR+) strains, increasing hormone
  induction of mtrC expression: could be induced
Loss of MtrR or MtrR-D171A strain
  induction of mtrC expression: abrogated
mtrC-lacZ, WT strain, 6.25 µM hormone
  Miller units, Mean: 131 Miller units
mtrC-lacZ, WT strain, 6.25 µM hormone, single replicate
  β-galactosidase activity (Miller units): 164 Miller units and 114 Miller units and 120 Miller units
mtrC-lacZ, WT strain, 12.5 µM hormone
  Miller units, Mean: 148 Miller units
mtrC-lacZ, WT strain, 12.5 µM hormone, single replicate
  β-galactosidase activity (Miller units): 178 Miller units and 161 Miller units and 132 Miller units
mtrC-lacZ, WT strain, 25 µM hormone
  Miller units, Mean: 177 Miller units
mtrC-lacZ, WT strain, 25 µM hormone, single replicate
  β-galactosidase activity (Miller units): 160 Miller units and 189 Miller units
mtrC-lacZ, WT strain, 50 µM hormone
  Miller units, Mean: 224 Miller units
mtrC-lacZ, WT strain, 50 µM hormone, single replicate
  β-galactosidase activity (Miller units): 242 Miller units and 240 Miller units and 211 Miller units
mtrC-lacZ, WT, 6.25 µM hormone
  Miller units, Mean: 131 Miller units
mtrC-lacZ, WT, 6.25 µM hormone, single replicate (plate data)
  Miller units: 164 Miller units and 114 Miller units and 128 Miller units and 120 Miller units
mtrC-lacZ, WT, 12.5 µM hormone
  Miller units, Mean: 148 Miller units
mtrC-lacZ, WT, 12.5 µM hormone, single replicate (plate data)
  Miller units: 178 Miller units and 161 Miller units and 120 Miller units and 132 Miller units
mtrC-lacZ, WT, 25 µM hormone
  Miller units, Mean: 177 Miller units
mtrC-lacZ, WT, 25 µM hormone, single replicate (plate data)
  Miller units: 160 Miller units and 176 Miller units and 189 Miller units
mtrC-lacZ, WT, 50 µM hormone
  Miller units, Mean: 224 Miller units
mtrC-lacZ, WT, 50 µM hormone, single replicate (plate data)
  Miller units: 242 Miller units and 240 Miller units and 203 Miller units and 211 Miller units
mtrC-lacZ, ΔmtrR + mtrR D171A in trans, 6.25 µM hormone
  Miller units, Mean: 148.9 Miller units
[1]
  Miller units: 158 Miller units and 155 Miller units
  β-galactosidase activity (Miller units): 155 Miller units and 147 Miller units and 135 Miller units
mtrC-lacZ, ΔmtrR + mtrR D171A in trans, 12.5 µM hormone
  Miller units, Mean: 157.2 Miller units
[2]
  Miller units: 167 Miller units and 147 Miller units
  β-galactosidase activity (Miller units): 147 Miller units and 195 Miller units and 119 Miller units
mtrC-lacZ, ΔmtrR + mtrR D171A in trans, 25 µM hormone
  Miller units, Mean: 167.0 Miller units
[3]
  Miller units: 203 Miller units and 162 Miller units
  β-galactosidase activity (Miller units): 162 Miller units and 132 Miller units and 171 Miller units
mtrC-lacZ, ΔmtrR + mtrR D171A in trans, 50 µM hormone
  Miller units, Mean: 162.7 Miller units
[4]
  Miller units: 193 Miller units
  β-galactosidase activity (Miller units): 188 Miller units and 124 Miller units and 146 Miller units
mtrC-lacZ, ΔmtrR + mtrR WT in trans, 6.25 µM hormone
  Miller units, Mean: 116 Miller units
[5]
  Miller units: 106 Miller units and 141 Miller units and 104 Miller units and 116 Miller units
  β-galactosidase activity (Miller units): 106 Miller units and 141 Miller units and 104 Miller units and 116 Miller units
mtrC-lacZ, ΔmtrR + mtrR WT in trans, 12.5 µM hormone
  Miller units, Mean: 113 Miller units
[6]
  Miller units: 119 Miller units and 115 Miller units and 110 Miller units
  β-galactosidase activity (Miller units): 119 Miller units and 115 Miller units and 110 Miller units
mtrC-lacZ, ΔmtrR + mtrR WT in trans, 25 µM hormone
  Miller units, Mean: 138 Miller units
[7]
  Miller units: 133 Miller units and 147 Miller units and 127 Miller units and 144 Miller units
  β-galactosidase activity (Miller units): 133 Miller units and 147 Miller units and 127 Miller units and 144 Miller units
mtrC-lacZ, ΔmtrR + mtrR WT in trans, 50 µM hormone
  Miller units, Mean: 158 Miller units
[8]
  Miller units: 176 Miller units and 161 Miller units and 132 Miller units and 164 Miller units
  β-galactosidase activity (Miller units): 176 Miller units and 161 Miller units and 132 Miller units and 164 Miller units
mtrC-lacZ, ΔmtrR strain, 6.25 µM hormone
  Miller units, Mean: 210 Miller units
mtrC-lacZ, ΔmtrR strain, 6.25 µM hormone, single replicate
  β-galactosidase activity (Miller units): 187 Miller units and 203 Miller units and 200 Miller units
mtrC-lacZ, ΔmtrR strain, 12.5 µM hormone
  Miller units, Mean: 218 Miller units
mtrC-lacZ, ΔmtrR strain, 12.5 µM hormone, single replicate
  β-galactosidase activity (Miller units): 197 Miller units and 237 Miller units and 209 Miller units
mtrC-lacZ, ΔmtrR strain, 25 µM hormone
  Miller units, Mean: 243 Miller units
mtrC-lacZ, ΔmtrR strain, 25 µM hormone, single replicate
  β-galactosidase activity (Miller units): 261 Miller units and 223 Miller units and 202 Miller units
mtrC-lacZ, ΔmtrR strain, 50 µM hormone
  Miller units, Mean: 255 Miller units
mtrC-lacZ, ΔmtrR strain, 50 µM hormone, single replicate
  β-galactosidase activity (Miller units): 220 Miller units and 317 Miller units
mtrC-lacZ, ΔmtrR, 6.25 µM hormone
  Miller units, Mean: 210 Miller units
mtrC-lacZ, ΔmtrR, 6.25 µM hormone, single replicate (plate data)
  Miller units: 203 Miller units and 200 Miller units and 187 Miller units and 250 Miller units
mtrC-lacZ, ΔmtrR, 12.5 µM hormone
  Miller units, Mean: 218 Miller units
mtrC-lacZ, ΔmtrR, 12.5 µM hormone, single replicate (plate data)
  Miller units: 237 Miller units and 209 Miller units and 197 Miller units and 228 Miller units
mtrC-lacZ, ΔmtrR, 25 µM hormone
  Miller units, Mean: 243 Miller units
mtrC-lacZ, ΔmtrR, 25 µM hormone, single replicate (plate data)
  Miller units: 223 Miller units and 202 Miller units and 261 Miller units and 287 Miller units
mtrC-lacZ, ΔmtrR, 50 µM hormone
  Miller units, Mean: 255 Miller units
mtrC-lacZ, ΔmtrR, 50 µM hormone, single replicate (plate data)
  Miller units: 317 Miller units and 220 Miller units and 261 Miller units
6.25 µM
  β-galactosidase activity, Mean: 194 Miller units
  β-galactosidase activity, single replicate: 207 Miller units and 196 Miller units and 188 Miller units
12.5 µM
  β-galactosidase activity, Mean: 205 Miller units
  β-galactosidase activity, single replicate: 258 Miller units and 180 Miller units and 177 Miller units and 206 Miller units
25 µM
  β-galactosidase activity, Mean: 197 Miller units
  β-galactosidase activity, single replicate: 241 Miller units and 190 Miller units and 188 Miller units and 169 Miller units
50 µM
  β-galactosidase activity, Mean: 269 Miller units
  β-galactosidase activity, single replicate: 316 Miller units and 254 Miller units and 275 Miller units and 231 Miller units
6.25 µM hormone
  β-galactosidase activity, individual replicate: 54 Miller units and 39 Miller units
6.25 µM, first data set (c15-c36)
  β-galactosidase activity, Miller units (single replicate): 147 Miller units and 157 Miller units and 114 Miller units and 129 Miller units
6.25 µM, second data set (c53-c74)
  β-galactosidase activity, Miller units (single replicate): 43 Miller units and 41 Miller units
12.5 µM hormone
  β-galactosidase activity, individual replicate: 72 Miller units and 56 Miller units
12.5 µM, first data set (c15-c36)
  β-galactosidase activity, Miller units (single replicate): 160 Miller units and 155 Miller units and 156 Miller units and 149 Miller units
12.5 µM, second data set (c53-c74)
  β-galactosidase activity, Miller units (single replicate): 45 Miller units and 43 Miller units
25 µM hormone
  β-galactosidase activity, individual replicate: 63 Miller units
25 µM, first data set (c15-c36)
  β-galactosidase activity, Miller units (single replicate): 152 Miller units and 181 Miller units and 159 Miller units and 157 Miller units
25 µM, second data set (c53-c74)
  β-galactosidase activity, Miller units (single replicate): 63 Miller units and 52 Miller units
